Like-named read-outs stand apart in the source and are kept apart here.
Columns and labels:
[1] = system: T. gondii β-gal tachyzoites; design: method as in PMID 34144354, PMID 32347622, doi:10.3390/inorganics9080059, PMID 36500266; settings: cited from earlier work; for T. Gondii β-gal Growth (%): tachyzoites in HFF, vs 0.1% DMSO control = 100%
[2] = system: human foreskin fibroblasts (HFF); design: method as in PMID 34144354, PMID 32347622, doi:10.3390/inorganics9080059, PMID 36500266; settings: cited from earlier work; for HFF Viability (%): non-infected HFF, vs 0.1% DMSO control = 100%; for HFF Viability at 2.5 µM (%): control 0.25% DMSO = 100%
[3] = system: T. gondii β-gal tachyzoites; assay: In vitro proliferation of T. gondii β-gal tachyzoites in HFF, β-galactosidase colorimetric test (primary screening and IC50); format: cell-based, Toxoplasma gondii; settings: for T. Gondii β-gal Growth (%): 72 h, tachyzoites in HFF, vs 0.1% DMSO control = 100%; for IC50: eight serial concentrations 7 nM to 1 µM; for IC50 fold lower compared to pyrimethamine: T. gondii β-gal, pyrimethamine IC50 = 0.326 µM
Method: In a primary screening, each compound was evaluated at two concentrations 0.1 and 1 µM and added to the media prior to the infection as previously described. Control non-infected non-treated HFF cultures and T. gondii β-gal infected but not-treated cultures were cultivated in complete medium containing 0.01 or 0.1% DMSO. The 96-well plates were incubated for 72 h at 37 °C/5% CO2 as previously described.
For the IC50 determination on T. gondii β-gal, eight serial concentrations ranging from 7 nM to 1 μM were tested for each selected compound as previously described and the β-galactosidase assay was performed as reported. Briefly, infected HFF cultures in 96-well plates were lysed with PBS containing 0.05% Triton X-100. Then the substrate chlorophenolred-β-D-galactopyranoside (CPRG; Roche Diagnostics, Rotkreuz, Switzerland) was added in a final concentration of 0.5 mM. Absorption was measured at 570 nm wavelength using an EnSpire® multimode plate reader (PerkinElmer, Inc., Waltham, MA, USA).

in vitro = settings: human
Method: (§1) The viability of treated HFF was measured by the alamarBlue metabolic assay, and the proliferation of T. gondii β-gal was quantified by the β-galactosidase colorimetric test. In both cases, results are expressed as percentage (%) compared to control parasitic and host cells treated with 0.1% DMSO for which proliferation and viability were set to 100% (Table 1).
(§2) All tissue culture media were purchased from Gibco-BRL, and biochemical agents from Sigma-Aldrich. […] Transgenic T. gondii β-gal tachyzoites (expressing the β-galactosidase gene from Escherichia coli) from RH strain were kindly provided by Prof.
(§3) The screening sequence for the compounds was described in previous reports. All compounds were prepared as 1 mM stock solutions from powder in dimethyl sulfoxide (DMSO, Sigma, St. Louis, MO, USA). For in vitro activity and cytotoxicity assays, HFF were seeded at 5 × 10^3/well in 96 well plates and allowed to grow to confluence in complete culture medium at 37 °C and 5% CO2.
(§4) All calculations were performed using the corresponding software tool contained in the Excel software package (Microsoft, Redmond, WA, USA). […] Then the medium was removed, the plates were washed once with PBS and 200 μL of resazurin (1:200 dilution in PBS) were added to each well. […] Fluorescence was measured at two different time points: T0 as starting timepoint and T5h as at 5 h later. Relative fluorescence units were calculated from time points with linear increases.

[4] = system: human foreskin fibroblasts (HFF); assay: in vitro
Method: as §1, §2, §3, §4

[5] = Stability in DMSO-d6 followed by 1H NMR; settings: 25 °C, 5 min and more than 1 month after sample preparation

SMILES	T. Gondii β-gal Growth (%) ([1]; 0.1 µM)	T. Gondii β-gal Growth (%) ([1]; 1 µM)	IC50 [1]	HFF Viability (%) ([2]; 0.1 µM)	HFF Viability (%) ([2]; 1 µM)	T. Gondii β-gal Growth (%) ([3]; 0.1 µM)	T. Gondii β-gal Growth (%) ([3]; 1 µM)	IC50 [3]	HFF Viability (%) ([4]; 0.1 µM)	HFF Viability (%) ([4]; 1 µM)	further results
CC(C)(C)c1ccc(C[S-])cc1.CC(C)(C)c1ccc(C[S-])cc1.Cc1ccc(C(C)C)cc1.Cc1ccc(C(C)C)cc1.Oc1ccc([S-])cc1.[Cl-].[Ru+2].[Ru+2] [Compound 2]	66 ± 14%	2 ± 0%	117 nM	76 ± 6%	46 ± 6%						HFF Viability at 2.5 µM (%) [2]: 56%
CC(C)(C)c1ccc(C[S+]2[Ru-]3[S+](Cc4ccc(C(C)(C)C)cc4)[Ru-]2[S+]3c2ccc(N)cc2)cc1.Cc1ccc(C(C)C)cc1.Cc1ccc(C(C)C)cc1.[Cl-] (centres unmarked) [Compound 3]	57 ± 1%	2 ± 0%	153 nM	74 ± 2%	48 ± 1%						HFF Viability at 2.5 µM (%) [2]: 51%
CC(C)(C)c1ccc(C[S-])cc1.CC(C)(C)c1ccc(C[S-])cc1.Cc1ccc(C(C)C)cc1.Cc1ccc(C(C)C)cc1.O=C(O)Cc1ccc([S-])cc1.[Cl-].[Ru+2].[Ru+2] [Compound 4]	114 ± 2%	110 ± 2%		91 ± 4%	73 ± 1%						
CC(C)(C)c1ccc(C[S+]2[Ru-]3[S+](Cc4ccc(C(C)(C)C)cc4)[Ru-]2[S+]3c2ccccc2CO)cc1.Cc1ccc(C(C)C)cc1.Cc1ccc(C(C)C)cc1.[Cl-] (centres unmarked) [Compound 5]	2 ± 0%	1 ± 0%	38 nM	80 ± 1%	69 ± 6%						HFF Viability at 2.5 µM (%) [2]: 4%
C#CCCCC(=O)Oc1ccc([S-])cc1.CC(C)(C)c1ccc(C[S-])cc1.CC(C)(C)c1ccc(C[S-])cc1.Cc1ccc(C(C)C)cc1.Cc1ccc(C(C)C)cc1.[Cl-].[Ru+2].[Ru+2] [Compound 6]						4 ± 0%	0 ± 0%	23 nM			
C#CCCCC(=O)Nc1ccc([S+]2[Ru-]3[S+](Cc4ccc(C(C)(C)C)cc4)[Ru-]2[S+]3Cc2ccc(C(C)(C)C)cc2)cc1.Cc1ccc(C(C)C)cc1.Cc1ccc(C(C)C)cc1.[Cl-] (centres unmarked) [Compound 7]	21 ± 2%	0 ± 0%	38 nM								
C#CCNC(=O)Cc1ccc([S-])cc1.CC(C)(C)c1ccc(C[S-])cc1.CC(C)(C)c1ccc(C[S-])cc1.Cc1ccc(C(C)C)cc1.Cc1ccc(C(C)C)cc1.[Cl-].[Ru+2].[Ru+2] [Compound 8]	52 ± 13%	3 ± 1%		71 ± 2%	46 ± 6%						
CC(C)(C)c1ccc(C[S+]2[Ru-]3[S+](Cc4ccc(C(C)(C)C)cc4)[Ru-]2[S+]3c2ccccc2CN=[N+]=[N-])cc1.Cc1ccc(C(C)C)cc1.Cc1ccc(C(C)C)cc1.[Cl-] (centres unmarked) [Compound 9]	9 ± 1%	1 ± 1%	48 nM	96 ± 1%	64 ± 1%						HFF Viability at 2.5 µM (%) [2]: 11%
CC(=O)OC[C@H]1O[C@@H](N=[N+]=[N-])[C@H](OC(C)=O)[C@@H](OC(C)=O)[C@@H]1OC(C)=O [Compound 10, 2,3,4,6-tetra-O-acetyl-β-D-glucopyranosyl azide]						101 ± 1%	99 ± 0%				Antiparasitic activity (in words) ([3]; 0.1 and 1 µM): neither antiparasitic activity; viability at 72 h, 0.1 µM (in vitro): 98 ± 1%; viability at 72 h, 1 µM (in vitro): 99%
CC(=O)OC[C@H]1O[C@@H](n2cc(CCCC(=O)Oc3ccc([S-])cc3)nn2)[C@H](OC(C)=O)[C@@H](OC(C)=O)[C@@H]1OC(C)=O.CC(C)(C)c1ccc(C[S-])cc1.CC(C)(C)c1ccc(C[S-])cc1.Cc1ccc(C(C)C)cc1.Cc1ccc(C(C)C)cc1.[Cl-].[Ru+2].[Ru+2] [Compound 19]						9 ± 1%	0 ± 0%	18 nM	102 ± 1%	97 ± 1%	HFF Viability at 2.5 µM (%) [4]: 29%
CC(=O)OC[C@H]1O[C@@H](n2cc(CCCC(=O)Nc3ccc([S-])cc3)nn2)[C@H](OC(C)=O)[C@@H](OC(C)=O)[C@@H]1OC(C)=O.CC(C)(C)c1ccc(C[S-])cc1.CC(C)(C)c1ccc(C[S-])cc1.Cc1ccc(C(C)C)cc1.Cc1ccc(C(C)C)cc1.[Cl-].[Ru+2].[Ru+2] [Compound 20]						100 ± 1%	1 ± 2%	110 nM	98 ± 1%	99 ± 0%	HFF Viability at 2.5 µM (%) [4]: 77%; Stability in DMSO-d6 (1H NMR spectra) [5]: no significant modifications
CC(=O)OC[C@H]1O[C@@H](OCCn2cc(CCCC(=O)Nc3ccc([S-])cc3)nn2)[C@H](OC(C)=O)[C@@H](OC(C)=O)[C@@H]1OC(C)=O.CC(C)(C)c1ccc(C[S-])cc1.CC(C)(C)c1ccc(C[S-])cc1.Cc1ccc(C(C)C)cc1.Cc1ccc(C(C)C)cc1.[Cl-].[Ru+2].[Ru+2] [Compound 21]						87 ± 1%	1 ± 0%	87 nM	100 ± 1%	101 ± 0%	
CC(=O)OC[C@H]1O[C@@H](OCCn2cc(CCCC(=O)Nc3ccc([S-])cc3)nn2)[C@H](OC(C)=O)[C@@H](OC(C)=O)[C@H]1OC(C)=O.CC(C)(C)c1ccc(C[S-])cc1.CC(C)(C)c1ccc(C[S-])cc1.Cc1ccc(C(C)C)cc1.Cc1ccc(C(C)C)cc1.[Cl-].[Ru+2].[Ru+2] [Compound 22]						73 ± 1%	2 ± 0%	298 nM	100 ± 0%	101 ± 0%	HFF Viability at 2.5 µM (%) [4]: 73%; Stability in DMSO-d6 (1H NMR spectra) [5]: no significant modifications
CC(=O)OC[C@H]1O[C@@H](OCCCn2cc(CCCC(=O)Nc3ccc([S-])cc3)nn2)[C@H](OC(C)=O)[C@@H](OC(C)=O)[C@H]1OC(C)=O.CC(C)(C)c1ccc(C[S-])cc1.CC(C)(C)c1ccc(C[S-])cc1.Cc1ccc(C(C)C)cc1.Cc1ccc(C(C)C)cc1.[Cl-].[Ru+2].[Ru+2] [Compound 23]						85 ± 1%	1 ± 0%	32 nM	99 ± 1%	101 ± 1%	IC50 fold lower compared to pyrimethamine [3]: 10 fold; HFF Viability at 2.5 µM (%) [4]: 92%
CC(=O)OC[C@H]1O[C@@H](OCCCc2cn(Cc3ccccc3[S-])nn2)[C@H](OC(C)=O)[C@@H](OC(C)=O)[C@@H]1OC(C)=O.CC(C)(C)c1ccc(C[S-])cc1.CC(C)(C)c1ccc(C[S-])cc1.Cc1ccc(C(C)C)cc1.Cc1ccc(C(C)C)cc1.[Cl-].[Ru+2].[Ru+2] [Compound 25]						75 ± 2%	27 ± 0%		98 ± 1%	97 ± 1%	Stability in DMSO-d6 (1H NMR spectra) [5]: no significant modifications
CC(=O)OC[C@H]1O[C@@H](OCCCc2cn(Cc3ccccc3[S-])nn2)[C@H](OC(C)=O)[C@@H](OC(C)=O)[C@H]1OC(C)=O.CC(C)(C)c1ccc(C[S-])cc1.CC(C)(C)c1ccc(C[S-])cc1.Cc1ccc(C(C)C)cc1.Cc1ccc(C(C)C)cc1.[Cl-].[Ru+2].[Ru+2] [Compound 26]						89 ± 1%	0 ± 0%	153 nM	98 ± 1%	99 ± 1%	IC50 fold lower compared to pyrimethamine [3]: 2 fold; HFF Viability at 2.5 µM (%) [4]: 97%; Stability in DMSO-d6 (1H NMR spectra) [5]: no significant modifications
CCc1nc(N)nc(N)c1-c1ccc(Cl)cc1 [Pyrimethamine, reference compound]			326 nM								

Reference: PMC9865825, “Synthesis and Antiparasitic Activity of New Trithiolato-Bridged Dinuclear Ruthenium(II)-arene-carbohydrate Conjugates” (Molecules, 2023)
